CCCCCCCCCCCCCCCc1cccc(O)c1
Details	solubility (mole fraction)
in acetone, 289.08 K	0.253
in acetone, 291.32 K	0.272
in acetone, 293.55 K	0.309
in acetone, 295.54 K	0.33
in acetone, 297.54 K	0.351
in acetone, 299.33 K	0.373
in ethanol, 291.47 K	0.158
in ethanol, 293.83 K	0.181
in ethanol, 295.56 K	0.199
in ethanol, 297.55 K	0.228
in ethanol, 299.15 K	0.252
in ethanol, 301.28 K	0.278
in ethyl acetate, 290.83 K	0.236
in ethyl acetate, 295.86 K	0.299
in ethyl acetate, 297.3 K	0.323
in ethyl acetate, 300.12 K	0.352
in ethyl acetate, 302.14 K	0.38
in n-butanol, 293.55 K	0.239
in n-butanol, 295.36 K	0.263
in n-butanol, 297.33 K	0.282
in n-butanol, 299.16 K	0.302
in n-butanol, 300.86 K	0.321
in n-butanol, 302.94 K	0.349
in tetrachloromethane, 288.46 K	0.0912
in tetrachloromethane, 290.45 K	0.101
in tetrachloromethane, 292.51 K	0.124
in tetrachloromethane, 294.42 K	0.15
in tetrachloromethane, 296.55 K	0.18
in tetrachloromethane, 298.36 K	0.21
in tetrachloromethane, 300.24 K	0.242
in toluene, 295.25 K	0.122
in toluene, 297.45 K	0.14
in toluene, 299.2 K	0.16
in toluene, 301.23 K	0.186
in toluene, 303.66 K	0.228
in toluene, 305.47 K	0.262
